Laboratory results from US20060252807A1, “Novel ortho-terphenyl inhibitors of p38 kinase and methods of treating inflammatory disorders” (Kalypsys, Inc., priority 2005, published 2006).

Target: T1, active p38 alpha enzyme (Upstate Biotechnology) (Homo sapiens, UniProt Q16539)
T1 construct: purchased Upstate Biotechnology
Assay: p38α biochemical assay (ATP turnover, luminescent detection, Cambrex PKlight)
Details: Table 1 Biological Activity
Description: The p38α biochemical assay employed is based on measurement of total ATP turnover following enzyme incubation with substrate in the presence of ATP with the use of a luminescent detection reagent (Cambrex PKlight). The assays were performed in 1536-well white opaque plates.
The final volume was 7.5005 μL as prepared prepared from the addition of 5 ul of kinase reaction (p38 alpah+MapkapK2+ATP) with 0.0005 μL compound dissolved in DMSO, and 2.5 ul of the detection reagent. Assay buffer contains the following reagents to give final concentration in the assay: 200 mM Tris, 100 mM MgCl2, 1.5 mM EGTA, 4 mM CaCl2, 20 mM MOPS, 1 mM EDTA, 1% glycerol, 0.1% B-Mecaptoethanol, and 1 mg/ml BSA. Test compounds are pinned using proprietary pintool technology (Kalypsys, Inc) and delivered as […] amounts into the 5 ul mixture of active p38 alpha enzyme (Upstate Biotechnology) and MapkapK2 (Upstate Biotechnology) whole protein as a substrate for phosphorylation in the presence of 1.4 uM final concentration ATP. Reactions are incubated at 30C for 2 hours and detection reagent is added in 2.5 ul/well amounts. Assay is read using a Perkin Elmer Viewlux.

T1 sequence (Q16539 whole entry): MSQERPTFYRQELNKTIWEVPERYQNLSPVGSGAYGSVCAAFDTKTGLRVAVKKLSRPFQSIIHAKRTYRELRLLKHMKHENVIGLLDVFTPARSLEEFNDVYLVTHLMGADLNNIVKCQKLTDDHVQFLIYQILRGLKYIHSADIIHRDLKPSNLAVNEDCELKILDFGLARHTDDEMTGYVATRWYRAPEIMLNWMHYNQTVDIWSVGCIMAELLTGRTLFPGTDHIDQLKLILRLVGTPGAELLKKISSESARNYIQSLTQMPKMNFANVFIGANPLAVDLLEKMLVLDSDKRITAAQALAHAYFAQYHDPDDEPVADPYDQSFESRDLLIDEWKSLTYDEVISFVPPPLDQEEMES

Compound	IC50 (p38α kinase) [nM]	IC50 (p38α biochemical assay) [nM]
2-|4-(4-Fluoro-phenyl)-5-oxo-2,5-dihydro-isoxazol-3-yl|-thiazole-4-carboxylic acid isopropyl amide [Example 2181]	> 1000	–
COCCOCn1nc(-c2ccc(F)cc2)c(-c2nc(C=NOC)cs2)c1C (single isomer, unassigned) [Example 2186, 2-|3-(4-Fluoro-phenyl)-1-(2-methoxy-ethoxymethyl)-5-methyl-1H-pyrazol-4-yl|-thiazole-4-carbaldehyde O-methyl-oxime]	> 1000	–
COCCOCn1nc(-c2ccc(F)cc2)c(-c2nc(C=NOC)cs2)c1C (single isomer, unassigned) [Example 2187, 2-|3-(4-Fluoro-phenyl)-1-(2-methoxy-ethoxymethyl)-5-methyl-1H-pyrazol-4-yl|-thiazole-4-carbaldehyde O-methyl-oxime]	> 1000	–
Cc1onc(-c2ccc(Cl)cc2)c1-c1ccn(C(=O)NC(C)C)n1 [Example 2, 3-|3-(4-Chloro-phenyl)-5-methyl-isoxazol-4-yl|-pyrazole-1-carboxylic acid isopropylamide]	–	≤ 1000
CNC(=O)n1ccc(-c2c(-c3ccc(Cl)cc3)noc2C)n1 [Example 3, 3-|3-(4-Chloro-phenyl)-5-methyl-isoxazol-4-yl|-pyrazole-1-carboxylic acid methylamide]	–	> 1000
CCC(C)NC(=O)n1ccc(-c2c(-c3ccc(Cl)cc3)noc2C)n1 (stereo not drawn) [Example 4, 3-|3-(4-Chloro-phenyl)-5-methyl-isoxazol-4-yl|-pyrazole-1-carboxylic acid sec-butylamide]	–	≤ 1000
Cc1onc(-c2ccc(Cl)cc2)c1-c1ccn(C(=O)NCCO)n1 [Example 5, 3-|3-(4-Chloro-phenyl)-5-methyl-isoxazol-4-yl|-pyrazole-1-carboxylic acid (2-hydroxy-ethyl)-amide]	–	≤ 1000
Cc1onc(-c2ccc(Cl)cc2)c1-c1ccn(C(=O)NC(C)CO)n1 (stereo not drawn) [Example 6, 3-|3-(4-Chloro-phenyl)-5-methyl-isoxazol-4-yl|-pyrazole-1-carboxylic acid (2-hydroxy-1-methyl-ethyl)-amide]	–	≤ 1000
Cc1onc(-c2ccc(Cl)cc2)c1-c1ccn(C(=O)NC2CC2)n1 [Example 7, 3-|3-(4-Chloro-phenyl)-5-methyl-isoxazol-4-yl|-pyrazole-1-carboxylic acid cyclopropylamide]	–	> 1000
Cc1onc(-c2ccc(Cl)cc2)c1-c1ccn(C(=O)NC2CCCCC2)n1 [Example 8, 3-|3-(4-Chloro-phenyl)-5-methyl-isoxazol-4-yl|-pyrazole-1-carboxylic acid cyclohexylamide]	–	≤ 1000
Cc1onc(-c2ccc(Cl)cc2)c1-c1ccn(C(=O)NC2CCCC2)n1 [Example 9, 3-|3-(4-Chloro-phenyl)-5-methyl-isoxazol-4-yl|-pyrazole-1-carboxylic acid cyclopentylamide]	–	≤ 1000
Cc1onc(-c2ccc(Cl)cc2)c1-c1ccn(C(=O)NC2Cc3ccccc3C2)n1 [Example 10, 3-|3-(4-Chloro-phenyl)-5-methyl-isoxazol-4-yl|-pyrazole-1-carboxylic acid indan-2-ylamide]	–	> 1000
Cc1onc(-c2ccc(Cl)cc2)c1-c1ccn(C(=O)NCc2ccco2)n1 [Example 11, 3-|3-(4-Chloro-phenyl)-5-methyl-isoxazol-4-yl|-pyrazole-1-carboxylic acid (furan-2-ylmethyl)-amide]	–	> 1000
Cc1onc(-c2ccc(Cl)cc2)c1-c1ccn(C(=O)NCC2CCCO2)n1 (stereo not drawn) [Example 12, 3-|3-(4-Chloro-phenyl)-5-methyl-isoxazol-4-yl|-pyrazole-1-carboxylic acid (tetrahydro-furan-2-ylmethyl)-amide]	–	> 1000
Cc1onc(-c2ccc(Cl)cc2)c1-c1ccn(C(=O)N(C)C(C)C)n1 [Example 13, 3-|3-(4-Chloro-phenyl)-5-methyl-isoxazol-4-yl|-pyrazole-1-carboxylic acid isopropyl-methyl-amide]	–	> 1000
